We go through 7 compounds from ChEMBL document CHEMBL1131595, “Chemoprotective properties of phenylpropenoids, bis(benzylidene)cycloalkanones, and related Michael reaction acceptors: correlation of potencies as phase 2 enzyme inducers and radical scavengers” (J Med Chem, 1998).

The assay can be described thus: Scavenging activity of compound (superoxide radicals generated by the oxidation of xanthine and xanthine oxidase),expressed as the percent quenching of luminescence of lucigenin at 50 nM concentration.
On to `O=C1/C(=C/c2ccccc2O)CCC/C1=C\c1ccccc1O`, for which the Free radical scavenging amounted to 42%.
Turning to `O=C1/C(=C/c2ccccc2)CCCC/C1=C\c1ccccc1`, the Free radical scavenging was 11%.
As for `O=C1/C(=C/c2ccccc2)CCC/C1=C\c1ccccc1`, the figure is 11%.
As for `O=C1/C(=C/c2ccccc2O)CC/C1=C\c1ccccc1O`, the figure is 70%; as for `O=C1/C(=C/c2ccccc2)CC/C1=C\c1ccccc1`, 10%.
As for `COc1cc(/C=C2\CCC/C(=C\c3ccc(O)c(OC)c3)C2=O)ccc1O`, the figure is 30%.
As for `COc1ccccc1/C=C1\CCC/C(=C\c2ccccc2OC)C1=O`, the Free radical scavenging was 19%.
